What is called melting point is the temperature, or range, at which the solid turns liquid. Regarding `Oc1cc(COCc2ccccc2)ncn1`, the melting point lay within 102 to 103 °C.

Regarding `COC(=O)CCc1nc(-c2cccc(NC(=O)OC(C)(C)C)c2)no1`, the melting point fell in the range of 90 to 91 °C.

With `c1cc(-c2ccc(OCCCN3CCCCC3)cc2)ccc1CN1CCCCC1`, the melting point came to 90 °C.

In the case of `O=C(CCl)NC(c1ccc(F)cc1)c1ccc(F)cc1`, the melting point was found to be 128 °C.

`CCCCS(=O)(=O)c1ncn(C(=O)N(CCC)CCC)n1`: the melting point fell in the range of 38.5 to 39.5 °C.

Take `Cc1nc2c(C)cccn2c(=O)c1CCN1CC=C(c2c[nH]c3ccccc23)CC1`: the melting point is 210 to 212 °C.

`CCOC(=O)C(C)(C)Oc1ccc(C(=O)c2cccs2)cc1` gave a melting point of 45 °C.

On to `O=c1c2ccccc2nc(-c2ccccc2Cl)n1O`, for which the melting point was determined as 211 °C.

Compound `O=C(C(=O)c1cccc(C(=O)C(=O)c2ccc(Oc3ccc(Br)cc3)cc2)c1)c1ccc(Oc2ccc(Br)cc2)cc1` came in with a melting point of 120 to 122 °C.

In the case of `CCn1nc(C)c2c1C(=O)NCC(c1cccc(O)c1)=N2`, the melting point came to 204 °C.

`COc1cc2c(c3c1OC(C)(C)C3)C(c1ccc(=O)n(C)c1)=NC(C)(C)C2` had a melting point of 158 to 159 °C.

In turn, `Cn1c2cc(C(O)CO)ccc2c2c3c(c(-c4ccccc4Cl)cc21)C(=O)NC3=O` (configuration not stated) returned a melting point of 252 to 255 °C.

The compound `Brc1ccc(-c2c(-c3ccccc3)c(-c3ccccc3)c(-c3ccccc3)c(-c3ccccc3)c2-c2ccc(Br)cc2)cc1` had a melting point of 245 °C.

Compound `CCCCCCN1c2ccc(OC)cc2C(C)(C)C12C=Cc1cc([N+](=O)[O-])cc(OC)c1S2` (configuration not stated) registered a melting point of 97 to 98 °C.

Regarding `CN(C)C(=O)c1ccc(N2CCN(Cc3cnc4c(c3)NC(=O)[C@@H]3CCCN43)CC2)cc1`, the melting point stood at 99.2 °C.

`Cc1cccc2oc(C(O)[C@H](C)NC(=O)OCc3ccccc3)nc12` (some centres not stated) returned a melting point of 98 °C.

As to `Clc1nc2cc(Cl)c(Cl)cc2[nH]1`, the melting point lay within 212 to 214 °C.

`CSc1nc(N)cc(OCCOCP(=O)(O)O)n1` registered a melting point of 210 to 211 °C.

On to `CC(C)CC(NC(=O)Cc1ccc(NC(=O)Nc2ccccc2Cl)cc1)c1ncc(CCC(=O)O)s1` (configuration not stated), for which the melting point fell in the range of 173 to 175 °C.

`O=[N+]([O-])c1cc(Cl)c(Cl)cc1NCCCO` came in with a melting point of 97 °C.

The compound `CCOC(=O)c1ccc2nc(-c3ccc(C)cc3)c(CN(C)C(=O)CC(C)C)n2c1` registered a melting point of 158 to 160 °C.

Compound `Cc1cc2nc(Cl)c(Cl)nc2c(N)c1C` gave a melting point of 178 to 180 °C.

`CC(C)c1cccc(C(C)C)c1NC(=O)N(Cc1ccc(O)cc1)CC1(c2cccc(N(C)C)c2)CCCCC1` returned a melting point of 166 to 168 °C.

Compound `Cn1cc(-c2cccc(C(F)(F)F)c2)c(=O)c(-c2ccccc2Cl)c1` showed a melting point of 191 to 193 °C.

In turn, `COc1cc(OC)c2c(=O)[nH]c(-c3cc(C)c(OCCOCc4ccccc4)c(C)c3)nc2n1` had a melting point of 204 to 206 °C.

Take `CCOC(=O)c1ccc2c(c1)C(=O)c1nc3ccccc3c(=O)n1-2`: the melting point is 270 to 273 °C.

Turning to `O=C(c1ccccc1)c1nsc2nc3ccccc3n12`, the melting point is 190 to 191 °C.

Take `CC(=O)N(C)c1ccccc1CS(=O)c1nccn1-c1ccccn1` (configuration not stated): the melting point was in the range of 188 to 189 °C.

With `Cc1ccc(S(=O)(=O)NC(=O)Nc2ccc(C(F)(F)F)cc2)cc1`, the melting point was 194 to 197 °C.

`COc1ccc(C2(CCC(=O)O)SCCCS2)cc1OC` registered a melting point of 134 to 135 °C.

`CC(O)CCc1cc(C(C)(C)C)c(O)c(C(C)(C)C)c1` (configuration not stated) showed a melting point of 62 to 67 °C.

`CCOC(=O)Nc1ccc(C(=O)OC)cc1` yielded a melting point of 159 to 162 °C.

With `CN1CC=C(C2=Cc3ccccc3Oc3ccc(Br)cc32)CC1`, the melting point lay in the range of 144 to 146 °C.

Regarding `CCOC(=O)C(C=O)Cc1cnc(C)c(C)c1` (configuration not stated), the melting point lay within 148 to 149 °C.

`COc1ccc(SSc2ccc(OC)cc2C(N)=O)c(C(N)=O)c1` registered a melting point of 188 to 189 °C.

In turn, `CCOC(=O)N1CCC(Nc2nc3cccnc3n2Cc2ccc(CC)o2)CC1` yielded a melting point of 111 °C.

Turning to `COC(=O)c1ccc(-c2cccc(C(=O)OC)c2)cc1`, the melting point fell in the range of 86 to 87 °C.

As for `O=C(c1ccc(Nc2ccnc3cc(C(F)(F)F)ccc23)cc1)N1CCN(S(=O)(=O)c2ccc(F)cc2)CC1`, the melting point lay in the range of 251 to 253 °C.

Regarding `CS(=O)(=O)c1ccc(-n2cnc3ccc(-c4nnc(CCc5cccc(C(F)(F)F)c5)o4)cc32)cc1`, the melting point was 204 to 205 °C.

`CCOC(=O)c1cn(-c2cnsn2)c2nc(Cl)c(F)cc2c1=O`: the melting point was 175 to 178 °C.

Turning to `CCN(CC)CCNc1ccc(CO)c2sc3ccc(O)cc3c(=O)c12`, the melting point was in the range of 181 to 182 °C.

Consider `CCc1cc(COc2nn(Cc3ccccc3)cc2C(=O)O)ccc1OCc1nc(-c2ccco2)oc1C`, for which the melting point lay in the range of 173 to 174 °C.

Regarding `CN(c1cc(OC(F)(F)F)cc2cc(C3=NCC(CCO)S3)[nH]c12)S(=O)(=O)c1cccs1` (configuration not stated), the melting point is 152 to 153 °C.

`COC(=O)Nc1ccc(OC(=O)OC)cc1` gave a melting point of 75 to 76 °C.

`CC(C)C(=CCS(=O)(=O)c1ccccc1)C(C)C` gave a melting point of 50 °C.

As to `CCOC(=O)c1c(SCOC)nc2cc(F)c(F)cc2c1O`, the melting point lay within 123 to 127 °C.

In turn, `CCc1nc(CC)c(CO)c(-c2ccccc2)c1CC` yielded a melting point of 100 °C.

On to `CC1(C)CC(=O)c2ccc(OCCn3ccnc3)cc2O1`, for which the melting point is 84 to 86 °C.

With `COc1ccc(-c2c(C(=O)O)c(CSc3nccn3C)nc3cc(OC)c(OC)cc23)cc1OC`, the melting point was 213 to 214 °C.

With `CCCCOc1cc(C(=O)NCCCN2CCCCC2)cc(S(N)(=O)=O)c1Cc1ccccc1`, the melting point was determined as 138 °C.

For `CC(C)=C1CCCP1(=O)c1ccccc1` (configuration not stated), the melting point was 143 to 146 °C.

With `O=C(O)c1ccc(Cl)c(NC(=O)C(CS)Cc2ccccc2)c1` (configuration not stated), the melting point is 189 to 191 °C.

Regarding `COc1c(Cl)ccc(-c2nc(N)c(Cl)c(C(=O)O)n2)c1F`, the melting point was 172 to 173 °C.

`CCNC(=O)C(C)n1cc(C)c(-c2ccccc2)n1` (configuration not stated): the melting point lay in the range of 78 to 79 °C.

`CCOC(=O)c1cn(Cc2ccc(-c3ccccc3-c3nnnn3C(c3ccccc3)(c3ccccc3)c3ccccc3)cc2)c2sc(CC)cc2c1=O` came in with a melting point of 195 to 198 °C.

For the compound `Cc1ccc(Cl)c(C)c1NC(=O)N=C1NC(=O)CN1C`, the melting point was 140 to 142 °C.

As for `CC(C)(C)OC(=O)N1C(=O)C2(COc3cc4c(cc32)OCCO4)c2ccccc21` (configuration not stated), the melting point was 171 to 172 °C.

Turning to `COc1cc(OC)nc(NC(=O)NS(=O)(=O)c2c(OC)ccc3snnc23)n1`, the melting point lay within 120 to 129 °C.

Take `Nc1ccc2c(c1)OCC(CN1CC=C(c3c[nH]c4ccccc34)CC1)O2` (configuration not stated): the melting point fell in the range of 199 to 200 °C.

For the compound `COCCNC(=O)c1cccc(-c2nc(=O)c3ccccc3s2)n1`, the melting point was 176 to 177 °C.

On to `CS(=O)(=O)N1CCC(=C2c3ccccc3CCc3cccnc32)CC1`, for which the melting point was 223 to 224 °C.

The compound `NC(=O)c1cc(OCCNCC(O)COc2ccccc2-c2cc3ccccc3[nH]2)ccc1O` (configuration not stated) gave a melting point of 93 to 95 °C.

The compound `CC(=O)NCCc1ccc(C=O)cc1` had a melting point of 81 to 83 °C.

On to `CC(C)(CO)NS(=O)(=O)c1cccc(NC(=O)c2cnn3c(C(F)(F)F)cc(-c4ccc(C(F)(F)F)c(F)c4)nc23)c1`, for which the melting point was 221 °C.

With `O=S(=O)(F)Cc1ccc(F)c(Oc2ccccc2)c1`, the melting point is 59.5 to 61.5 °C.

`CCOC(=O)CC(=O)CNC(=O)CCc1cc(-c2ccc(C(F)(F)F)cc2)oc1C` showed a melting point of 131 to 133 °C.

For the compound `Cc1ccc(S(=O)(=O)N2CC(NC(=O)c3ccccc3)CC2C(=O)O)cc1` (configuration not stated), the melting point was 120 to 125 °C.

`Cc1cc(N)nc(Br)c1` gave a melting point of 99 °C.

Consider `CN(C)CCc1cccc2ccc(-c3ccccc3CNS(C)(=O)=O)cc12`, for which the melting point was in the range of 151 to 154 °C.

`COC(=O)N1CC(=O)Nc2cccc(F)c21` yielded a melting point of 170 to 172 °C.

`CC1CC2(C)C(CCC3C2CCC2(C)C(OCc4ccccc4)CCC32)CC1=O` (configuration not stated): the melting point was in the range of 116 to 120 °C.

`Cc1cc2c(nc(C)n2CCc2ccccc2)c(N)n1`: the melting point is 185 to 187 °C.

For `c1ccc(Nc2ncnc3cnccc23)cc1`, the melting point was found to be 161 °C.

As to `CN(C)C=Nc1c(I)c(=O)n(Cc2ccccc2)c(=O)n1C`, the melting point was 186 °C.

In turn, `Cc1oc(-c2ccccc2)nc1CCOc1ccc(CC(Nc2ccccc2C(=O)c2ccccc2)C(=O)O)c2sccc12` (configuration not stated) showed a melting point of 124 to 127 °C.

`CCOC(=O)c1nn(-c2ccc(Cl)cc2)c(=O)c(C#N)c1C`: the melting point was 160 to 161 °C.

In turn, `CCOC(C)n1c(Cl)nc(-c2ccc(OC)cc2)c1-c1ccc(OC)cc1` (configuration not stated) came in with a melting point of 118 to 120 °C.

`Fc1ccc2[nH]cc(C3=CCN(CC4CCc5ccccc5O4)CC3)c2c1` (configuration not stated) had a melting point of 172 to 175 °C.

For the compound `CCOC(=O)c1c2ccc(Cl)cc2c(-c2ccccc2)n1CCNC(=O)OCc1ccccc1`, the melting point was 102 to 104 °C.

On to `COP(=O)(CN[C@@H](Cc1ccc(-c2ccccc2)cc1)C(=O)O)OC`, for which the melting point is 133 to 136 °C.

For the compound `CC(C)[C@H](NC(=O)N(C)Cc1cccnc1)C(=O)N[C@@H](Cc1ccccc1)[C@H](O)[C@@H](O)[C@H](Cc1ccccc1)NC(=O)[C@@H](NC(=O)N(C)Cc1cccnc1)C(C)C`, the melting point lay within 95 to 97 °C.

`O=C1CN(c2ccncc2)CCN1` showed a melting point of 268 to 270 °C.

With `O=CC(=Cc1ccccc1F)C(C=O)=Cc1ccccc1F`, the melting point lay in the range of 141 to 142 °C.

For the compound `COc1cc(C(=O)c2ccccc2[N+](=O)[O-])c(Br)cn1`, the melting point fell in the range of 128 to 131 °C.

As for `CCCCNC(=O)CSc1nc(Cl)cc(Cl)n1`, the melting point fell in the range of 109 to 111 °C.

Turning to `CSc1ncc(-c2ccccc2)c(=O)[nH]1`, the melting point fell in the range of 252 to 254 °C.

The compound `CCc1ccc(C(O)COc2ccc(CC3SC(=O)NC3=O)cc2)nc1` (configuration not stated) gave a melting point of 129 to 130 °C.

For the origin of these results see a melting point compilation (Tetko et al.; mined from patent text by program, amines drawn as free bases though some values may be those of a salt).
